Experiments:
Assay in all cases: relative viability (nuclei count vs DMSO), 5 days (fraction); higher = more cells survive
A549 = test system: A549
In short: (§1)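 Each reported value is a median over duplicate plates. It expresses relative viability: treated-well nuclei count divided by vehicle-well nuclei count. Lung cancer cell lines in 1536-well plates were dosed by pin tool a day after seeding, alone with one drug or with a fixed anchor-drug dose plus five library-drug doses (not always all listed) in √10 steps, and nuclei were counted after 5 days.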

ABC-1 = test system: ABC-1
In short: as §1

Calu-6 = test system: Calu-6
In short: as §1

EBC-1 = test system: EBC-1
In short: as §1

EMC-BAC-2 = test system: EMC-BAC-2
In short: as §1

IA-LM = test system: IA-LM
In short: as §1

NCI-H1299 = test system: NCI-H1299
In short: as §1

NCI-H1703 = test system: NCI-H1703
In short: as §1

NCI-H2009 = test system: NCI-H2009
In short: as §1

NCI-H2228 = test system: NCI-H2228
In short: as §1

## CCNC(=O)c1noc(-c2cc(C(C)C)c(O)cc2O)c1-c1ccc(CN2CCOCC2)cc1 [Luminespib] + CS(=O)(=O)CCNCc1ccc(-c2ccc3ncnc(Nc4ccc(OCc5cccc(F)c5)c(Cl)c4)c3c2)o1 [Lapatinib] (partner 2 µM)
A549; first compound 0.002 µM
  relative viability: 0.983
A549; first compound 0.006325 µM
  relative viability: 0.903
A549; first compound 0.02 µM
  relative viability: 0.897
A549; first compound 0.06325 µM
  relative viability: 0.627
A549; first compound 0.2 µM
  relative viability: 0.0491
ABC-1; first compound 0.002 µM
  relative viability: 1.33
ABC-1; first compound 0.006325 µM
  relative viability: 0.964
ABC-1; first compound 0.02 µM
  relative viability: 0.945
ABC-1; first compound 0.06325 µM
  relative viability: 1.14
ABC-1; first compound 0.2 µM
  relative viability: 0.517
Calu-6; first compound 0.002 µM
  relative viability: 1.11
Calu-6; first compound 0.006325 µM
  relative viability: 0.962
Calu-6; first compound 0.02 µM
  relative viability: 1.38
Calu-6; first compound 0.06325 µM
  relative viability: 0.166
Calu-6; first compound 0.2 µM
  relative viability: 0.119
EBC-1; first compound 0.002 µM
  relative viability: 0.204
EBC-1; first compound 0.006325 µM
  relative viability: 0.223
EBC-1; first compound 0.02 µM
  relative viability: 0.233
EBC-1; first compound 0.06325 µM
  relative viability: 0.187
EBC-1; first compound 0.2 µM
  relative viability: 0.194
EMC-BAC-2; first compound 0.002 µM
  relative viability: 0.942
EMC-BAC-2; first compound 0.006325 µM
  relative viability: 0.84
EMC-BAC-2; first compound 0.02 µM
  relative viability: 0.597
EMC-BAC-2; first compound 0.06325 µM
  relative viability: 0.853
EMC-BAC-2; first compound 0.2 µM
  relative viability: 0.781
IA-LM; first compound 0.002 µM
  relative viability: 0.929
IA-LM; first compound 0.006325 µM
  relative viability: 0.935
IA-LM; first compound 0.02 µM
  relative viability: 0.643
IA-LM; first compound 0.06325 µM
  relative viability: 0.0552
IA-LM; first compound 0.2 µM
  relative viability: 0.066
NCI-H1299; first compound 0.002 µM
  relative viability: 1.04
NCI-H1299; first compound 0.006325 µM
  relative viability: 0.965
NCI-H1299; first compound 0.02 µM
  relative viability: 0.989
NCI-H1299; first compound 0.06325 µM
  relative viability: 0.892
NCI-H1299; first compound 0.2 µM
  relative viability: 0.219
NCI-H1703; first compound 0.002 µM
  relative viability: 1.14
NCI-H1703; first compound 0.006325 µM
  relative viability: 1.07
NCI-H1703; first compound 0.02 µM
  relative viability: 0.998
NCI-H1703; first compound 0.06325 µM
  relative viability: 0.158
NCI-H1703; first compound 0.2 µM
  relative viability: 0.16
NCI-H2009; first compound 0.002 µM
  relative viability: 1.22
NCI-H2009; first compound 0.006325 µM
  relative viability: 0.814
NCI-H2009; first compound 0.02 µM
  relative viability: 0.63
NCI-H2009; first compound 0.06325 µM
  relative viability: 0.0682
NCI-H2009; first compound 0.2 µM
  relative viability: 0.0655
NCI-H2228; first compound 0.002 µM
  relative viability: 1.2
NCI-H2228; first compound 0.006325 µM
  relative viability: 0.808
NCI-H2228; first compound 0.02 µM
  relative viability: 0.191
NCI-H2228; first compound 0.06325 µM
  relative viability: 0.126
NCI-H2228; first compound 0.2 µM
  relative viability: 0.117

## CCNC(=O)c1noc(-c2cc(C(C)C)c(O)cc2O)c1-c1ccc(CN2CCOCC2)cc1 [Luminespib] + CS(=O)(=O)N1CCN(Cc2cc3nc(-c4cccc5[nH]ncc45)nc(N4CCOCC4)c3s2)CC1 [Pictilisib] (partner 1 µM)
A549; first compound 0.002 µM
  relative viability: 0.536
A549; first compound 0.006325 µM
  relative viability: 0.517
A549; first compound 0.02 µM
  relative viability: 0.152
A549; first compound 0.06325 µM
  relative viability: 0.0437
A549; first compound 0.2 µM
  relative viability: 0.0569
ABC-1; first compound 0.002 µM
  relative viability: 0.695
ABC-1; first compound 0.006325 µM
  relative viability: 0.693
ABC-1; first compound 0.02 µM
  relative viability: 0.407
ABC-1; first compound 0.06325 µM
  relative viability: 0.249
ABC-1; first compound 0.2 µM
  relative viability: 0.228
Calu-6; first compound 0.002 µM
  relative viability: 1.04
Calu-6; first compound 0.006325 µM
  relative viability: 0.847
Calu-6; first compound 0.02 µM
  relative viability: 1
Calu-6; first compound 0.06325 µM
  relative viability: 0.119
Calu-6; first compound 0.2 µM
  relative viability: 0.112
EBC-1; first compound 0.002 µM
  relative viability: 0.471
EBC-1; first compound 0.006325 µM
  relative viability: 0.365
EBC-1; first compound 0.02 µM
  relative viability: 0.248
EBC-1; first compound 0.06325 µM
  relative viability: 0.118
EBC-1; first compound 0.2 µM
  relative viability: 0.128
EMC-BAC-2; first compound 0.002 µM
  relative viability: 0.54
EMC-BAC-2; first compound 0.006325 µM
  relative viability: 0.511
EMC-BAC-2; first compound 0.02 µM
  relative viability: 0.417
EMC-BAC-2; first compound 0.06325 µM
  relative viability: 0.573
EMC-BAC-2; first compound 0.2 µM
  relative viability: 0.163
IA-LM; first compound 0.002 µM
  relative viability: 0.324
IA-LM; first compound 0.006325 µM
  relative viability: 0.369
IA-LM; first compound 0.02 µM
  relative viability: 0.159
IA-LM; first compound 0.06325 µM
  relative viability: 0.0483
IA-LM; first compound 0.2 µM
  relative viability: 0.0407
NCI-H1299; first compound 0.002 µM
  relative viability: 0.874
NCI-H1299; first compound 0.006325 µM
  relative viability: 0.698
NCI-H1299; first compound 0.02 µM
  relative viability: 0.767
NCI-H1299; first compound 0.06325 µM
  relative viability: 0.0703
NCI-H1299; first compound 0.2 µM
  relative viability: 0.0666
NCI-H1703; first compound 0.002 µM
  relative viability: 0.251
NCI-H1703; first compound 0.006325 µM
  relative viability: 0.244
NCI-H1703; first compound 0.02 µM
  relative viability: 0.179
NCI-H1703; first compound 0.06325 µM
  relative viability: 0.179
NCI-H1703; first compound 0.2 µM
  relative viability: 0.165
NCI-H2009; first compound 0.002 µM
  relative viability: 0.855
NCI-H2009; first compound 0.006325 µM
  relative viability: 0.819
NCI-H2009; first compound 0.02 µM
  relative viability: 0.583
NCI-H2009; first compound 0.06325 µM
  relative viability: 0.0684
NCI-H2009; first compound 0.2 µM
  relative viability: 0.0548
NCI-H2228; first compound 0.002 µM
  relative viability: 0.496
NCI-H2228; first compound 0.006325 µM
  relative viability: 0.373
NCI-H2228; first compound 0.02 µM
  relative viability: 0.122
NCI-H2228; first compound 0.06325 µM
  relative viability: 0.168
NCI-H2228; first compound 0.2 µM
  relative viability: 0.108
